Where “and” joins values, the source holds several entries; their conditions need not be identical. Equal values may be shown once. Where a name gives a salt, the structure may show the parent alone. Read-outs that look alike come from different tables or passages of the source.
Experiments:
recombinant human AChE [1] = target: T1, recombinant human AChE (Homo sapiens, UniProt P22303); experiment: biochemical; type: biochemical; conditions: for AC50: AC50 (uM)
[2] = target: AChE in neural stem cells (Homo sapiens, UniProt P22303); experiment: cell-based
AChE in neural stem cells, sequence (P22303 32-614): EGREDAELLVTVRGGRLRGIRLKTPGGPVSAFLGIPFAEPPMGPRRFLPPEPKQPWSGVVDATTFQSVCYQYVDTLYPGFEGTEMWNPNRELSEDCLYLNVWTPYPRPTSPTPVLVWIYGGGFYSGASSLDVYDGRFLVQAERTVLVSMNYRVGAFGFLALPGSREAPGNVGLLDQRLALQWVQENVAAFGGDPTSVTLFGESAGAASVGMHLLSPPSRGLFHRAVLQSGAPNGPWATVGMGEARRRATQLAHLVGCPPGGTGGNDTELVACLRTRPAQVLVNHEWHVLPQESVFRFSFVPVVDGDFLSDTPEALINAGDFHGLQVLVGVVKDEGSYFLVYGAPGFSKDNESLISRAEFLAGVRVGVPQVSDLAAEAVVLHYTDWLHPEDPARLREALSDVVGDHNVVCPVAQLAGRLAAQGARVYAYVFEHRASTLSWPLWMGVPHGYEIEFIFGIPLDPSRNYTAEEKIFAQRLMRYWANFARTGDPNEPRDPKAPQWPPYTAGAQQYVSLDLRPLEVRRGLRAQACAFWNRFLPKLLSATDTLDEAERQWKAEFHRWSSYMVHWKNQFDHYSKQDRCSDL

AChE in SH-SY5Y cells = AChE in SH-SY5Y cells (Homo sapiens, UniProt P22303); experiment: cell-based
AChE in SH-SY5Y cells, sequence (P22303 32-614): as above

recombinant human AChE [3] = target: T1, recombinant human AChE; experiment: biochemical
recombinant human AChE [4] = target: T1, recombinant human AChE; experiment: biochemical; conditions: for IC50: potency (IC50), Enzyme
[5] = target: AChE in SH-SY5Y spheroids (Homo sapiens, UniProt P22303); experiment: cell-based; conditions: potency (IC50)
AChE in SH-SY5Y spheroids, sequence (P22303 32-614): as above

recombinant human AChE [6] = target: T1, recombinant human AChE; experiment: biochemical; remark: listed apart in the source
[7] = target: AChE in neural stem cell spheroids (Homo sapiens, UniProt P22303); experiment: cell-based; conditions: potency (IC50)
AChE in neural stem cell spheroids, sequence (P22303 32-614): as above

recombinant human AChE [8] = target: T1, recombinant human AChE
[9] = potency (IC50), SH-SY5Y cells monolayer
[10] = potency (IC50), Enzyme with microsomes
[11] = Neural stem cell spheroid (24 h)
[12] = Neural stem cell spheroid (48 h)
For IR or R in this document: key: Reversible (R); Irreversible (IR); ND, not detected in enzyme-based AChE inhibition assay from current study.

T1 sequence (P22303 32-614): as above

CCC1(c2cccc(O)c2)CCCCN(C)C1 (stereo not drawn) [Meptazinol hydrochloride, reference compound]
AC50 (recombinant human AChE [1]): 4.64 µM and 9.25 µM and 3.68 µM and 5.2 µM and 8.25 µM and 5.84 µM and 6.55 µM

CCOP(=S)(OCC)Oc1cc(C)nc(C(C)C)n1 [Diazinon]
IC50 [2]: 0.41 ± 0.11 µM | CC-v2 (curve classes) (AChE in SH-SY5Y cells): 4 and -2.1 and -1.1 | IC50 (AChE in SH-SY5Y cells; [9]): 11.3 ± 1.44 µM | reversibility of AChE inhibition (result in words) (recombinant human AChE [1]): irreversibility | AC50 (recombinant human AChE [1]): 6.85 µM and 30.6 µM and 10.9 µM and 24.3 µM | IC50 (recombinant human AChE [3]; [10]): 22.6 ± 1.52 µM | IC50 (recombinant human AChE [4]): 19.4 ± 2.22 µM | IC50 ([5]; SH-SY5Y spheroids (24 h)): 19 ± 11.8 µM | IC50 ([5]; SH-SY5Y spheroids (48 h)): 20.1 ± 1.36 µM | potency (IC50), Enzyme-based assay with heat-inactivated microsomes (recombinant human AChE [6]): Inactive | IC50 [7, 11]: 0.04 ± 0.01 µM | IC50 [7, 12]: 0.09 ± 0.02 µM

COP(N)(=S)Oc1ccccc1C(=O)OC(C)C (stereo not drawn) [Isocarbophos]
IC50 [2]: 27.8 µM | IC50 (AChE in SH-SY5Y cells; IC50 (uM)): 89.4 µM | IC50 (AChE in SH-SY5Y cells; [9]): 54.3 ± 9.25 µM | IC50 (recombinant human AChE [3]; IC50 (uM)): 2.83 µM | IC50 (recombinant human AChE [3]; [10]): 8.21 µM | AChE inhibition (result in words) (recombinant human AChE [4]): did not show effects | CC-v2 (curve classes) (recombinant human AChE [4]): 4 | Efficacy (recombinant human AChE [4]): 0 | IC50 ([5]; SH-SY5Y spheroids (48 h)): 41.5 µM | CC-v2 (curve classes) (recombinant human AChE [8]): -1.1 | Efficacy (recombinant human AChE [8]): -89.537 | IC50 (recombinant human AChE [6]): 55.9 µM | IC50 [7, 11]: 29.9 µM | IC50 [7, 12]: 23.1 µM

CNC(=O)Oc1cccc(N=CN(C)C)c1 [Formetanate hydrochloride]
AC50 (recombinant human AChE [1]): 63.1 µM and 56.2 µM (2×) and 50.1 µM and 70.7 µM and 44.6 µM and 39.8 µM

CCOP(=S)(OCC)Oc1cnc2ccccc2n1 [Quinalphos]
IC50 [2]: 7.48 µM | CC-v2 (curve classes) (AChE in SH-SY5Y cells): -2.1 and 4 | IC50 (AChE in SH-SY5Y cells; IC50 (uM)): 35.6 µM | IC50 (AChE in SH-SY5Y cells; [9]): 46.4 µM | AC50 (recombinant human AChE [1]; activity_60): 49.8 µM and 62.7 µM | IC50 (recombinant human AChE [3]; [10]): 1.77 µM | IC50 (recombinant human AChE [4]): 55.9 µM | IC50 ([5]; SH-SY5Y spheroids (24 h)): 29.4 µM | IC50 ([5]; SH-SY5Y spheroids (48 h)): 46.2 µM | IC50 (recombinant human AChE [6]): 36.8 ± 4.7 µM | IC50 [7, 11]: 1.64 µM | IC50 [7, 12]: 2.94 µM

CCN(CC)CCNC(=O)c1c(C)[nH]c(/C=C2\C(=O)Nc3ccc(F)cc32)c1C [Sunitinib malate, reference compound]
CC-v2 (curve classes) (AChE in SH-SY5Y cells): -1.1 | IR or R (recombinant human AChE [1]): R | CC-v2 (curve classes) (recombinant human AChE [4]): -1.1 | Efficacy (recombinant human AChE [4]): -78.177 | CC-v2 (curve classes) (recombinant human AChE [8]): -2.2 | Efficacy (recombinant human AChE [8]): -53.539

CCOP(=S)(OCC)Oc1ccc2c(C)c(Cl)c(=O)oc2c1 [Coumaphos]
IC50 [2]: 22.6 µM | CC-v2 (curve classes) (AChE in SH-SY5Y cells): 4 and -1.1 and -2.1 | potency (IC50), SH-SY5Y cells monolayer (AChE in SH-SY5Y cells): Inactive | IC50 (AChE in SH-SY5Y cells; IC50 (uM)): 12.6 µM and 22.7 µM and 22.4 µM and 28.6 µM and 17.8 µM and 12.8 µM | AC50 (recombinant human AChE [1]): 24.3 µM and 27.3 µM | IC50 (recombinant human AChE [3]; [10]): 5.51 µM | AChE inhibition (result in words) (recombinant human AChE [4]): did not show effects | CC-v2 (curve classes) (recombinant human AChE [4]): 4 and -2.2 and -2.1 | potency (IC50), Enzyme (recombinant human AChE [4]): Inactive | IC50 ([5]; SH-SY5Y spheroids (24 h)): 27.1 µM | IC50 ([5]; SH-SY5Y spheroids (48 h)): 20.6 µM | potency (IC50), Enzyme-based assay with heat-inactivated microsomes (recombinant human AChE [6]): Inactive | IC50 [7, 11]: 21.1 µM | IC50 [7, 12]: 21.4 µM

COc1ccc(OC(F)(F)F)cc1CN[C@H]1CCCN[C@H]1c1ccccc1 [CP-122721, reference compound]
CC-v2 (curve classes) (AChE in SH-SY5Y cells): 4 | potency (IC50), SH-SY5Y cells monolayer (AChE in SH-SY5Y cells): Inactive | CC-v2 (curve classes) (recombinant human AChE [4]): 4 | Efficacy (recombinant human AChE [4]): 0 | potency (IC50), Enzyme (recombinant human AChE [4]): Inactive | CC-v2 (curve classes) (recombinant human AChE [8]): 4 | Efficacy (recombinant human AChE [8]): 0 | potency (IC50), Enzyme with microsomes (recombinant human AChE [8]): Inactive | potency (IC50), Enzyme-based assay with heat-inactivated microsomes (recombinant human AChE [6]): Inactive

COc1cc2c(N3CCN(C(=O)Nc4ccc(OC(C)C)cc4)CC3)ncnc2cc1OCCCN1CCCCC1 [Tandutinib, reference compound]
CC-v2 (curve classes) (AChE in SH-SY5Y cells): -2.1 | Efficacy (recombinant human AChE [1]): -90.305 | IR or R (recombinant human AChE [1]): R | CC-v2 (curve classes) (recombinant human AChE [4]): -2.1 | Efficacy (recombinant human AChE [4]): -82.501 | CC-v2 (curve classes) (recombinant human AChE [8]): 4 | Efficacy (recombinant human AChE [8]): -26.796

CN(C)C(=S)SSC(=S)N(C)C [Thiram]
IC50 (AChE in SH-SY5Y cells; IC50 (uM)): 38.9 µM and 88.1 µM and 78.5 µM and 89.4 µM and 71 µM | CC-v2 (curve classes) (recombinant human AChE [4]): 4 | CC-v2 (curve classes) (recombinant human AChE [8]): 4

COc1cc2nc(N3CCN(C(=O)c4ccco4)CC3)nc(N)c2cc1OC [Prazosin]
IC50 (AChE in SH-SY5Y cells; IC50 (uM)): 15.1 µM and 16.9 µM and 9.52 µM | Efficacy (recombinant human AChE [4]): -14.406 | Efficacy (recombinant human AChE [8]): 0

COCCCN1CCC(NC(=O)c2cc(Cl)c(N)c3c2OCC3)CC1 [Prucalopride]
CC-v2 (curve classes) (AChE in SH-SY5Y cells): -2.1 | IC50 (AChE in SH-SY5Y cells; IC50 (uM)): 17.4 µM | CC-v2 (curve classes) (recombinant human AChE [4]): -2.4 | Efficacy (recombinant human AChE [4]): -37.421 | CC-v2 (curve classes) (recombinant human AChE [8]): 4 | Efficacy (recombinant human AChE [8]): 0

CC(C)=CCN1CC[C@@]2(C)c3cc(O)ccc3C[C@@H]1[C@@H]2C.O=C(O)CCC(=O)O [(-)-Pentazocine succinate, reference compound]
CC-v2 (curve classes) (AChE in SH-SY5Y cells): -2.1 | IC50 (AChE in SH-SY5Y cells; read-out: IC50): 31.2 µM and 35.1 µM and 34.8 µM and 24.7 µM and 31 µM | CC-v2 (curve classes) (recombinant human AChE [4]): -2.4 | CC-v2 (curve classes) (recombinant human AChE [8]): 4 | Efficacy (recombinant human AChE [8]): 0

— PMC8041433 (Environmental Health Perspectives, 2021)
